Source: patent US20190365790A1, “Compounds, Compositions and Methods for Prevention or Treatment of Liver and Lipid-related Conditions” (SIVANARAY INC., priority 2017, published 2019)

System: HFD-fed, streptozotocin (STZ) injected rats with type 2 diabetes (T2DM)
Assay: Study 3 (BVISIV): plasma biochemical parameters in HFD + STZ type 2 diabetes rats
Format: in vivo
Conditions: for relative effectiveness in lowering serum triglyceride, LDL and ALT levels: 200 mg/kg/day oral, comparison among BVISIV formulations

Compound | lowering of glucose serum levels (200 mg/kg/day, end of 6 weeks, vs Group 2) | relative effectiveness in lowering serum triglyceride, LDL and ALT levels
O=C[C@H](O)[C@@H](O)[C@@H](O)[C@H](O)C(=O)O [BVISIV 4, Galacturonic Acid] | most effective | 
O=C[C@H](O)[C@@H](O)[C@@H](O)[C@H](O)CO [BVISIV 5, Galactose] |  | effective
O=C[C@@H](O)[C@H](O)[C@H](O)CO [BVISIV 6, Arabinose] |  | did not perform as well as the other formulations
